Experimental data taken from patent US10264787B1, “Natural mosquito larvicide” (BIOVECBLOK, s.r.l., priority 2017, dated 2019).

Test system: Larvae and pupae of Anopheles gambiae, An. stephensi, Aedes albopictus and Ae. aegypti
Conditions: after 24 hours post application; 0.03 g tyrosine in 200 ml breeding water; first to fourth-instar larvae
Protocol: The pre-adult developmental stages were grown under these conditions: 28° C., 80% relative humidity and a photoperiod of 12 h light followed by 12 h dark.
Mosquito larvicidal/pupicidal tests were carried out based on the WHO standardized procedures and guidelines for larvicidal assay.
For each mosquito species, 24 hours before the assay to reduce the larval stress, we prepared 6 trays [15 cm (width), 15 cm (length) and 6.5 cm (deep)] one for each tested products, containing 200 ml of breeding water which includes 40 mosquito larvae (first, second, third, fourth-instars) and 10 pupae. Each assay comprised of 3 replicates.
Mortality was recorded every 30 minutes from beginning for the pre-adult developmental stages (larvae and pupe). […] The dead larvae and pupae were recorded, and the average percentage mortality was calculated.

SMILES: N[C@@H](Cc1ccc(O)cc1)C(=O)O [tyrosine]
- larval mortality: about 60%
